Results on ten molecules are retold here after patent publication US6444664B1, “Method for controlling the plasma level of lipoproteins to treat alzheimeris disease” (Nederlandse Organisatie voor Toegepast - Natuurweten …, priority 1997, dated 2002).

The subject of assay [1] is apo A-I. The assay can be described thus: Apo A-I synthesis by cultured cynomolgus (simian) hepatocytes, ELISA of medium. The assay is classed as cell-based, cynomolgus monkey. The note with it: culture period 48 h to 72 h. Background: ELISA stands for enzyme-linked immunosorbent assay.
The test system of assay [2] is apo B-100. Put plainly: Apo B-100 synthesis by cultured cynomolgus (simian) hepatocytes, ELISA of medium. The assay is classed as cell-based, cynomolgus monkey. The note with it: culture period 48 h to 72 h.
Assay [3] deals with apo(a). Put plainly: Apo(a) synthesis by cultured cynomolgus (simian) hepatocytes, ELISA of medium. It counts as cell-based, cynomolgus monkey. The note with it: culture period 48 h to 72 h.
Assay [4] deals with apo A-I mRNA. Put plainly: Apo A-I mRNA levels in human hepatocytes, RNA hybridization. The assay is classed as cell-based. The note with it: 100 μM, cultured 48 h.
The test system of assay [5] is apo A-I. Put plainly: Apo A-I synthesis by cultured human hepatocytes, ELISA of medium. It counts as cell-based. The note with it: culture period 48 h to 72 h.
Assay [6] has as its system apo A-I mRNA. Put plainly: Apo A-I mRNA levels in cynomolgus hepatocytes, RNA hybridization. It counts as cell-based, cynomolgus monkey. The conditions noted are these: 100 μM, cultured 48 h. The procedure:
(§1) Total RNA was isolated from cynomolgus hepatocytes, cultured for 48 h in the presence or absence of the compounds, by the method of Chomczynski & Sacchi (33). After washing the RNA pellets with 70% (v/v) ethanol, RNA samples were dissolved in water. The RNA concentration in each sample was determined spectrophotometrically, assuming that one A260 unit corresponds with 40 μg RNA/mL. Equal amounts of total RNA (10 μg) from different incubations were fractionated by, elcctrophoresis in a 0.8% (w/v) agarose gel containing 0.27 M formaldehyde, and transferred to Hybond-N+ (Amershamn) in accordance with the manufacturer's instructions and UV cross-linked. Probes, labelling conditions and hybridization were performed as described previously in detail (25).
(§2) Apo(a) mRNAs were detected using a kringle IV synthetic double-stranded probe of 75 nucleotides with the sense sequence: GGGAATTCGAACCTGCCAAGCTTGGTCATCTATGACACCACACTCGCATAGTCGGACCCC AGAATAAAGCTTGGG, based on the sequence published by McLean et al (34). This probe was labelled by the random primer method according to Megaprime™ DNA labelling systems (Amersham). After hybridization, the blots were washed twice with 2×SSC/1% SDS (1×SSC=0.15 mol/L NaCl/0.015 mol/L sodium citrate, pH 7.0) and twice with 1×SSC/1% SDS for 30 min at 65° C. The blots were exposed to a Fuji imaging plate type BAS-MP for 1 to 24 h. The relative amounts of mRNA were quantified using a phospho-imager (Fuji Fujix BAS 1000) and the computer programs BAS-reader version 2.8 and TINA version 2.08 c.
(§3) Data shown in table 2 are obtained from measurements using RNA isolated from hepatocytes cultured for 48 h with or without the compounds.

Assay [7] has as its system apo(a) mRNA. Put plainly: Apo(a) mRNA levels in cynomolgus hepatocytes, RNA hybridization. It counts as cell-based, cynomolgus monkey. The note with it: 100 μM, cultured 48 h. The protocol:
as §1, §2, §3

In assay [8] the test system is apo B-100. Put plainly: Apo B-100 synthesis by cultured human hepatocytes, ELISA of medium. The assay is classed as cell-based. The conditions noted are these: culture period 48 h to 72 h.
For assay [9], the system named is apo(a) mRNA. Put plainly: Apo(a) mRNA levels in human hepatocytes, RNA hybridization. The conditions noted are these: 100 μM, cultured 48 h. The assay is classed as cell-based. The protocol:
as §1, §2, §3

Assay [10] has as its system apo(a). Put plainly: Apo(a) synthesis by cultured human hepatocytes, ELISA of medium. It counts as cell-based. The conditions noted are these: culture period 48 h to 72 h.
Assay [11] deals with lp(a). The note with it: cited from earlier work.

Where two headings read alike, the source gives them in different places.

With `COc1cc([C@@H]2OC[C@H](c3cc(OC)c(OC)c(OC)c3)O2)cc(OC)c1OC` (relative stereo) [Cisdioxolane, Cis-2,4-bis(3,4,5-trimethoxyphenyl)dioxolane, reference compound], the “Apo A-I synthesis” value in [1] (100 μM) is 229 ± 79 (2) % of control. Further, the “Apo B-100 synthesis” value in assay [2] (100 μM) is reported as 99 ± 21 (3) % of control. The “Apo(a) synthesis” value in assay [3] (100 μM) is listed as 83 ± 2 (3) % of control.
On the same counts, the results for `COc1cc([C@H]2CC[C@H](c3cc(OC)c(OC)c(OC)c3)O2)cc(OC)c1OC` (relative stereo) [L-652,731, Trans-2,5-bis(3,4,5-trimethoxyphenyl)tetrahydrofuran, reference compound] are 134 ± 1 (2) % of control, 76 ± 35 (2) % of control and 66 ± 8 (2) % of control.
For `CCCCCCCCCCCCCCCCCCNC(=O)OC[C@@H]1CC[C@H](COP(=O)([O-])OCC[n+]2cccc3ccccc32)O1` (relative stereo) [SRI 63-441, O-cis-5-(octadecylcarbamoyloxymethyl)-2-tetrahydrofurylmethyl O-(2-quinolinio-ethyl) hydrogen phosphate, reference compound] the same measures were 166 ± 6 (2) % of control, 142 ± 32 (2) % of control and 24 ± 1 (2) % of control.
`COc1cc([C@@H]2OC[C@@H](c3cc(OC)c(OC)c(OC)c3)O2)cc(OC)c1OC` (relative stereo) [Transdioxolane, Trans-2,4-bis(3,4,5-trimethoxyphenyl)dioxolane, reference compound]: the figures for the “Apo A-I synthesis” value in assay [1] (30 μM) and in assay [1] (100 μM) were 116 ± 7 (3) % of control and 157 ± 2 (3) % of control, respectively. Further, the results for the “Apo B-100 synthesis” value in assay [2] (30 μM) and in assay [2] (100 μM) were 117 ± 23 (3) % of control and 105 ± 7 (3) % of control, respectively. In addition, the “Apo(a) synthesis” value in assay [3] (30 μM) is listed as 103 ± 9 (3) % of control; in assay [3] (100 μM), 60 ± 12 (3) % of control.
For `Cc1nnc2n1-c1sccc1C(c1ccccc1)=NC2` [Azepine 1], the “Apo A-I mRNA levels relative to GAPDH” value is given as 111 (1) % of control in assay [4] and 147 ± 28 (3) % of control in assay [6]. Moreover, the “Apo A-I mRNA levels relative to actin” value is recorded as 203 (1) % of control in [4] and 328 ± 7 (3) % of control in [6]. Further, the “Apo A-I mRNA levels relative to rRNA” value is on record as 308 (1) % of control in assay [4] and 229 ± 8 (3) % of control in assay [6]. Also, the “Apo A-I synthesis” value in [5] (3 μM) is 164 ± 61 (2) % of control; in assay [5] (10 μM), 283 ± 109 (2) % of control; in assay [5] (30 μM) it was 622 ± 228 (2) % of control; in assay [5] (100 μM), 721 ± 212 (2) % of control; in assay [1] (3 μM) it was 152 ± 30 (2) % of control; in assay [1] (10 μM), 185 ± 20 (6) % of control. Also, the “Apo A-I synthesis” value in assay [1] (30 μM) was 225 ± 45 (6) % of control; in [1] (100 μM) it was 367 ± 131 (6) % of control. Also, the “Apo(a) mRNA levels relative to GAPDH” value in [7] was 39 ± 4 (3) % of control; in assay [9], 24 (1) % of control. Besides, the “Apo(a) mRNA levels relative to actin” value is given as 86 ± 7 (3) % of control in [7] and 44 (1) % of control in [9]. Moreover, the figures for the “Apo(a) mRNA levels relative to rRNA” value in assay [7] and in assay [9] were 56 ± 12 (3) % of control and 67 (1) % of control, respectively. The “Apo B-100 synthesis” value in assay [2] (3 μM) is on record as 117 ± 10 (2) % of control; in assay [2] (10 μM) it was 113 ± 20 (6) % of control; in [2] (30 μM) it was 106 ± 27 (6) % of control; in assay [2] (100 μM), 95 ± 23 (6) % of control; in assay [8] (3 μM), 83 ± 16 (2) % of control; in [8] (10 μM) it was 112 ± 3 (2) % of control. The “Apo B-100 synthesis” value in assay [8] (30 μM) is reported as 109 ± 8 (2) % of control; in assay [8] (100 μM), 114 ± 8 (2) % of control. The “Apo(a) synthesis” value in [10] (3 μM) is 75 (1) % of control; in assay [10] (10 μM), 48 (1) % of control; in [10] (30 μM), 24 (1) % of control; in assay [10] (100 μM), 14 (1) % of control; in assay [3] (3 μM), 85 ± 5 (2) % of control; in assay [3] (10 μM), 76 ± 19 (6) % of control. Besides, the “Apo(a) synthesis” value is listed as 48 ± 28 (6) % of control in assay [3] (30 μM) and 34 ± 32 (6) % of control in [3] (100 μM).
On to `c1ccc(C2=NCc3nncn3-c3sccc32)cc1` [Azepine 2], for which the “Apo A-I synthesis” value in assay [1] (30 μM) was 178 (1) % of control. Moreover, the “Apo(a) synthesis” value in [3] (30 μM) is “no change”.
On to `Cc1nnc2n1-c1ccc(Cl)cc1C(c1ccccc1)=NC2C` (stereo not shown) [Azepine 3], for which the “Apo A-I synthesis” value in [1] (100 μM) was 359 ± 74 (3) % of control. Moreover, the “Apo B-100 synthesis” value in assay [2] (100 μM) is 102 ± 32 (2) % of control. Also, the “Apo(a) synthesis” value in assay [3] (100 μM) was 42 ± 20 (3) % of control.
On the same counts, the results for `Brc1nnc2n1-c1ccccc1C(c1ccccc1)=NC2` [Azepine 4] are 390 ± 40 (2) % of control, 95 ± 23 (2) % of control and 62 ± 22 (2) % of control.
On the same counts, the results for `CC1C(=O)OC2C(O)C34C5CC(C(C)(C)C)C36C(OC(=O)C6O)OC4(C(=O)O5)C12O` (stereo not shown) [BN 52051, Ginkgolide B, reference compound] are 144 ± 34 (2) % of control, 113 ± 34 (2) % of control and 101 ± 1 (2) % of control.
As for `O=C(O)c1cccnc1` [nicotinic acid], the “Reduction of plasma levels of lp(a)” value is about 38% in assay [11] (alone (4 g/day)); about 45% in assay [11] (in combination with neomycine (3 g/day and 2 g/day respectively)).
